Assay results reported in patent US11213497B2, “Antibiofilm formulations” (ARIZONA BOARD OF REGENTS ON BEHALF OF NORTHERN ARIZONA …, priority 2017, dated 2022).

Key:
[1] = system: mammalian skin cell lines
MSSA = test: MBEC of geranic acid in solution (Hepes buffer); assay type: cell-based, Staphylococcus aureus; conditions: 50 mM Hepes buffer
Text: Neutral species in DES may be uniquely important to potentiate otherwise bioactive IL. […] At this pH, most of the acid is expected to be found in the protonated state (pKa is ˜5-5.5 according to the literature). […] Many different DES can be envisioned with this same platform of 1:1 anion:cation as an EPS disruptor/delivery agent with a neutral acid (or even a completely neutral species such as an isoprenoid hydrocarbon) as a molecule designed to saturate both leaflets of a cellular membrane.

[2] = according to the literature; cited from earlier work

Protocol for MSSA biofilms: Biofilms of Methicillin-sensitive Staphylococcus aureus (MSSA) were established on the pegs of a biofilm inoculator (Innovotech) according to the manufacturer's instructions. Briefly, a bacterial colony of MSSA was inoculated from an agar streak plate into cation-adjusted Mueller-Hinton broth (5 mL) and grown to confluence overnight in a shaker incubator (37° C., 200 rpm). The confluent culture was then diluted into fresh media (1:100, v:v), and grown to an optical density (OD) of 0.4 (approximately three hours). At this time, the cultures were again diluted into fresh media (1:50, v:v) and 200 μL of the resultant dilution were placed into each well of an Innovotech 96 well biofilm inoculator plate. The inoculator was added to the wells of the culture plate and it was placed in a shaker incubator overnight (37° C., 150 rpm). The spent media was decanted each morning and refreshed with equal volumes of new media, and the inoculator was again placed in a shaker incubator overnight (37° C., 150 rpm). […]
A 10% (v:v) stock solution of each DES in CAMHB was serially diluted into fresh CAMHB in the wells of a 96 well plate. […] MSSA cells were allowed to grow overnight in the shaker incubator and viability was assessed via measurement of optical density at 600 nm using a plate reader (Synergy HT). […]

With choline geranate [CAGE] the “Toxicity to mammalian skin cell lines” value [1] was “generally non-toxic to mammalian skin cell lines”.

For “Choline Geranate Ionic Liquid [2; CAGE (1:1)]”, the “MBEC (% by volume)” value (MSSA biofilms; 2-hour challenge, 72 hr MSSA biofilms, dilutions in CAMHB 0.313-10% (v:v)) was 5-10 % by volume and the “MBEC against MSSA” value (MSSA biofilms; in water) was 5-10%.

In the case of `CC(C)=CCC/C(C)=C/C(=O)O` [geranic acid], the MBEC (MSSA; pH=6.4, 0.1% Tween 20) is given as 2.5 % in water, the MBEC (MSSA; pH=8.4, 0.1% Tween 20) is given as greater than 10% and the pKa [2] is given as 5-5.5.
